Tests used:
PDE1A [1] = biological target: T1, PDE1A (Homo sapiens, UniProt P54750); assay: PDE1A primary screening, cAMP dynamic HTRF kit from Cisbio; assay type: biochemical; conditions: control compounds of the primary screening, 100 nM cAMP
Source text: For the primary screening an assay using the cAMP dynamic HTRF® kit from Cisbio (catnr 62AM2PEB) is used. Its principle is based on HTRF® technology (Homogeneous Time-Resolved Fluorescence). The method is a competitive immunoassay between native cAMP and the cAMP labeled with XL665. The tracer binding is visualized by a monoclonal antibody against cAMP, labeled with Cryptate. The specific signal (i.e. energy transfer) is inversely proportional to the concentration of cAMP in the sample (see FIG. 1).
For the enzymatic reaction, a mixture is made of 20 μL with purified PDE1A enzyme, 100 nM cAMP and the compound (10 μM in a final concentration of 1% DMSO) in a black 384-plate. The reaction buffer is Tris 20 mM pH 7.4, 4 μg/mLl calmodulin, 3 mM MgCl2, 1.5 mM CaCl2, 0.2 mg/mL BSA and 0.001% Brij-35®. After an incubation of 30 minutes at room temperature, the reaction is stopped by the addition of 10 μL labelled cAMP-XL665 and 10 μL anti-cAMP-Cryptate. After 1 hour incubation at room temperature, the readout is performed on the Envision (excitation 360 nm; emission donor 615 nm; emission acceptor 665 nm).
PDE1A hydrolyses cAMP into 5′AMP; this low cAMP concentration will result in a high signal. A PDE1A inhibitor will result in a decrease of the signal. […]

PDE1A [2] = biological target: T1, PDE1A; assay: PDE1A dose response, Cyclic Nucleotide Phosphodiesterase Assay Kit from Biomol (colorimetric); assay type: biochemical; conditions: purified PDE1A enzyme, 100 μM cAMP
Procedure, shortened: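 Purified PDE1A hydrolysed 100 μM cAMP with 5′-nucleotidase in Tris 20 mM pH 7.4 with calmodulin, Ca2+, Mg2+, 45 min at 37° C. Released phosphate read by malachite-green absorbance at 615 nm. Duplicate 8-point 1/3 dilutions from 20 μM, 1% DMSO; 10 μM vardenafil defined 100% inhibition.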

IC50 (PDE1A [2]) [nM] | Compound | other results
 | CCCCOc1cc(CC2CNC(=O)N2)ccc1OC (stereo not drawn) [Ro-20-1724] | inhibition (PDE1A [1]; 10 μM): 0%
 | CCCOc1ccccc1-c1nc2nn[nH]c2c(=O)[nH]1 [Zaprinast] | inhibition at 10 µM (PDE1A [1]): ~50%
101 to 500 | O=C(c1cccc2c1OCO2)N1CCCC(c2nc3c(cnn3C3CCCCC3)c(=O)[nH]2)C1 (stereo not drawn) [Example 49, 6-(1-(benzo[d][1,3]dioxole-4-carbonyl)piperidin-3-yl)-1-cyclohexyl-1H-pyrazolo[3,4-d]pyrimidin-4(5H)-one] | 
1 to 100 | CC(C)(C)n1ncc2c(=O)[nH]c(C3CN(/C(=N\C#N)Nc4ccc(F)cc4)C3)nc21 [Example 179, 3-(1-tert-Butyl-4-oxo-4,5-dihydro-1H-pyrazolo[3,4-d]pyrimidin-6-yl)-N′-cyano-N-(4-fluorophenyl)azetidine-1-carboximidamide] | 
101 to 500 | O=c1[nH]c(C2CN(c3ncc(CN4CCCCC4)s3)C2)nc2c1cnn2C1CCCCC1 [Example 135, 1-cyclohexyl-6-(1-(5-(piperidin-1-ylmethyl)thiazol-2-yl)azetidin-3-yl)-1H-pyrazolo[3,4-d]pyrimidin-4(5H)-one] | 
101 to 500 | COc1ccccc1N1CC(c2nc3c(cnn3C3CCCCC3)c(=O)[nH]2)C1 [Example 169, 1-cyclohexyl-6-(1-(2-methoxyphenyl)azetidin-3-yl)-1H-pyrazolo[3,4-d]pyrimidin-4(5H)-one] | 
1000 to 1500 | Cc1nn(C2CCCCC2)c2nc(C3CCCN(C(=O)c4cccs4)C3)[nH]c(=O)c12 (stereo not drawn) [Example 101, 1-cyclohexyl-3-methyl-6-(1-(thiophene-2-carbonyl)piperidin-3-yl)-1H-pyrazolo[3,4-d]pyrimidin-4(5H)-one] | 
1 to 100 | Cc1nn(C2CCCCC2)c2nc(C3CN(C(=O)NCc4ccccc4)C3)[nH]c(=O)c12 [Example 24, N-benzyl-3-(1-cyclohexyl-3-methyl-4-oxo-4,5-dihydro-1H-pyrazolo[3,4-d]pyrimidin-6-yl)azetidine-1-carboxamide] | 
1 to 100 | CC(C)(C)n1ncc2c(=O)[nH]c(C3CN(c4ccc(CN5CCOCC5)cc4)C3)nc21 [Example 164, 1-tert-Butyl-6-[1-(4-morpholin-4-ylmethyl-phenyl)-azetidin-3-yl]-1,5-dihydro-pyrazolo[3,4-d]pyrimidin-4-one] | 
101 to 500 | O=C(c1ccc2c(c1)OCO2)N1CCCC(c2nc3c(cnn3C3CCCCC3)c(=O)[nH]2)C1 (stereo not drawn) [Example 76, 6-(1-(benzo[d][1,3]dioxole-5-carbonyl)piperidin-3-yl)-1-cyclohexyl-1H-pyrazolo[3,4-d]pyrimidin-4(5H)-one] | 
1 to 100 | O=C(OCC1CCCCC1)N1CC(c2nc3c(cnn3C3CCCCC3)c(=O)[nH]2)C1 [Example 120, cyclohexylmethyl 3-(1-cyclohexyl-4-oxo-4,5-dihydro-1H-pyrazolo[3,4-d]pyrimidin-6-yl)azetidine-1-carboxylate] | 
1 to 100 | CC(C)(C)n1ncc2c(=O)[nH]c(C3CN(C(=O)Oc4ccc5c(c4)OCO5)C3)nc21 [Example 119, benzo[d][1,3]dioxol-5-yl 3-(1-tert-butyl-4-oxo-4,5-dihydro-1H-pyrazolo[3,4-d]pyrimidin-6-yl)azetidine-1-carboxylate] | 
1 to 100 | Cc1ccc(NC(=O)N2CC(c3nc4c(cnn4C4CCCCC4)c(=O)[nH]3)C2)cc1C [Example 4, 3-(1-cyclohexyl-4-oxo-4,5-dihydro-1H-pyrazolo[3,4-d]pyrimidin-6-yl)-N-(3,4-dimethylphenyl)azetidine-1-carboxamide] | 
501 to 1000 | CC(C)N1CCC(CNC(=O)N2CC(c3nc4c(cnn4C4CCCCC4)c(=O)[nH]3)C2)CC1 [Example 184, 3-(1-Cyclohexyl-4-oxo-4,5-dihydro-1H-pyrazolo[3,4-d]pyrimidin-6-yl)-N-((1-isopropylpiperidin-4-yl)methyl)azetidine-1-carboxamide] | 
1000 to 1500 | Cc1nn(C2CCCCC2)c2nc(C3CCCN(S(=O)(=O)c4ccccc4Cl)C3)[nH]c(=O)c12 (stereo not drawn) [Example 100, 6-(1-(2-chlorophenylsulfonyl)piperidin-3-yl)-1-cyclohexyl-3-methyl-1H-pyrazolo[3,4-d]pyrimidin-4(5H)-one] | 
501 to 1000 | COc1ccccc1C(=O)N1CCCC(c2nc3c(c(C)nn3-c3ccccc3)c(=O)[nH]2)C1 (stereo not drawn) [Example 90, 6-(1-(2-methoxybenzoyl)piperidin-3-yl)-3-methyl-1-phenyl-1H-pyrazolo[3,4-d]pyrimidin-4(5H)-one] | 
1 to 100 | Cc1nn(C(C)(C)C)c2nc(C3CN(C(=O)Nc4ccc(F)cc4)C3)[nH]c(=O)c12 [Example 12, 3-(1-tert-butyl-3-methyl-4-oxo-4,5-dihydro-1H-pyrazolo[3,4-d]pyrimidin-6-yl)-N-(4-fluorophenyl)azetidine-1-carboxamide] | 
101 to 500 | O=c1[nH]c(C2CN(c3nc4ccccc4o3)C2)nc2c1cnn2C1CCCCC1 [Example 130, 6-(1-(benzo[d]oxazol-2-yl)azetidin-3-yl)-1-cyclohexyl-1H-pyrazolo[3,4-d]pyrimidin-4(5H)-one] | 
1 to 100 | O=c1[nH]c(C2CN(c3nc4ccccc4[nH]3)C2)nc2c1cnn2C1CCCCC1 [Example 125, 1-Cyclohexyl-6-(1-(1H-benzo[d]imidazol-2-yl)azetidin-3-yl)-1H-pyrazolo[3,4-d]pyrimidin-4-(5H)-one] | 
101 to 500 | Cc1nn(C2CCCCC2)c2nc(C3CN(C(=O)OCc4ccccc4)C3)[nH]c(=O)c12 [Example 115, Benzyl 3-(1-cyclohexyl-3-methyl-4-oxo-4,5-dihydro-1H-pyrazolo[3,4-d]pyrimidin-6-yl)azetidine-1-carboxylate] | 
1 to 100 | O=C(Nc1ccc(N2CCOCC2)cc1)N1CC(c2nc3c(cnn3C3CCCCC3)c(=O)[nH]2)C1 [Example 10, 3-(1-cyclohexyl-4-oxo-4,5-dihydro-1H-pyrazolo[3,4-d]pyrimidin-6-yl)-N-(4-morpholinophenyl)azetidine-1-carboxamide] | 
101 to 500 | COc1ccc(N2CC(c3nc4c(cnn4C4CCCCC4)c(=O)[nH]3)C2)cc1 [Example 165, 1-cyclohexyl-6-(1-(4-methoxyphenyl)azetidin-3-yl)-1H-pyrazolo[3,4-d]pyrimidin-4(5H)-one] | 
501 to 1000 | COc1cccc(C(=O)N2CCCC(c3nc4c(c(C)nn4-c4ccccc4)c(=O)[nH]3)C2)c1 (stereo not drawn) [Example 81, 6-(1-(3-methoxybenzoyl)piperidin-3-yl)-3-methyl-1-phenyl-1H-pyrazolo[3,4-d]pyrimidin-4(5H)-one] | 
1000 to 1500 | Cc1nn(C2CCCCC2)c2nc(C3CCCN(S(=O)(=O)c4cn(C)cn4)C3)[nH]c(=O)c12 (stereo not drawn) [Example 98, 1-cyclohexyl-3-methyl-6-(1-(1-methyl-1H-imidazol-4-ylsulfonyl)piperidin-3-yl)-1H-pyrazolo[3,4-d]pyrimidin-4(5H)-one] | 
1 to 100 | O=c1[nH]c(C2CN(c3ccc(CN4CCOCC4)cc3)C2)nc2c1cnn2C1CCCCC1 [Example 155, 1-Cyclohexyl-6-[1-(4-morpholin-4-ylmethyl-phenyl)-azetidin-3-yl]-1,5-dihydro-pyrazolo[3,4-d]pyrimidin-4-one] | 
1000 to 1500 | CCCCCS(=O)(=O)N1CC(c2nc3c(cnn3C3CCCCC3)c(=O)[nH]2)C1 [Example 104, 1-cyclohexyl-6-(1-(pentylsulfonyl)azetidin-3-yl)-1H-pyrazolo[3,4-d]pyrimidin-4(5H)-one] | 
101 to 500 | COc1ccc(S(=O)(=O)N2CCCC(c3nc4c(cnn4-c4ccccc4)c(=O)[nH]3)C2)cc1 (stereo not drawn) [Example 46, 6-(1-(4-methoxyphenylsulfonyl)piperidin-3-yl)-1-phenyl-1H-pyrazolo[3,4-d]pyrimidin-4(5H)-one] | 
